Assay results taken from PMC8607422, “Development of a novel TLR8 agonist for cancer immunotherapy” (Molecular Biomedicine, 2020).

Test system: T1, hERG potassium channel
T1 construct: purchased Eurofins Cerep44 panel
Experiment: Eurofins Cerep44 off-target panel
Details: human; 10 μM compound; >50% considered significant; read-out: effect on potassium channel hERG in Cerep screen (% inhibition of binding)
Experimental: Compound binding was calculated as a % inhibition of the binding of a radioactively labeled ligand specific for each target. Compound enzyme inhibition effect was calculated as a % inhibition of control enzyme activity.

## CCCN(CCC)C(=O)C1=Cc2ccc(-c3ccc(C(=O)N4CCCC4)cc3)cc2N=C(N)C1 [Motolimod, motolimod]
  inhibition at 10 µM: 59.2%
